Values of other authors, collected in patent US20060140985A1, “Lansoprazole formulations and related processes and methods” (priority 2003, published 2006).
Read-outs that look alike come from different tables or passages of the source.

Experiments:
[1] = not given; remark: listed apart in the source
gastric acid secretion = conditions: in vivo
[2] = not given; remark: listed apart in the source

**Q.** Which “degradation in aqueous solution” value (aqueous solution, pH dependence) does the source give for Cc1c(OCC(F)(F)F)ccnc1C[S+]([O-])c1nc2ccccc2[nH]1 (centres unmarked) [Lansoprazole, 2-[[[3-methyl-4 (2,2,2-trifluoroethoxy)-2-pyridyl]methyl]sulfinyl]benzimidazole] here?
**A.** The value was “degrades in aqueous solution, with the rate of degradation increasing with decreasing pH”.

**Q.** What about the “stability when exposed to light” value (light) of the same molecule?
**A.** The value was “stable when exposed to light for up to two months”.

**Q.** And the metabolism ([1]; liver)?
**A.** The metabolism was “extensively metabolized in the liver”.

**Q.** And the plasma elimination half-life ([1]; plasma)?
**A.** Its plasma elimination half-life is “less than two hours”.

**Q.** What about the “duration of acid inhibitory effect” value (gastric acid secretion) of the same molecule?
**A.** Its value is “more than twenty-four hours”.

**Q.** And the solubility ([2]; acetonitrile)?
**A.** The solubility was “slightly soluble”.

**Q.** What about the solubility ([2]; dichloromethane) of the same molecule?
**A.** Its solubility is “slightly soluble”.

**Q.** What about the solubility ([2]; dimethylformamide) of the same molecule?
**A.** Its solubility is “freely soluble”.

**Q.** What about the solubility ([2]; ethanol) of the same molecule?
**A.** The solubility was “sparingly soluble”.

**Q.** What about the solubility ([2]; ether) of the same molecule?
**A.** Its solubility is “very slightly soluble”.

**Q.** What about the solubility ([2]; ethyl acetate) of the same molecule?
**A.** Its solubility is “slightly soluble”.

**Q.** And the solubility ([2]; hexane)?
**A.** The solubility was “practically insoluble”.

**Q.** What about the solubility ([2]; methanol) of the same molecule?
**A.** Its solubility is “soluble”.

**Q.** What about the solubility ([2]; water) of the same molecule?
**A.** Its solubility is “practically insoluble”.
